{"source": "patent US11420975B2", "about": "“Substituted imidazo[1,5-a]pyrazines as Bruton's tyrosine kinase inhibitors” (TRANSTHERA SCIENCES (NANJING), INC., priority 2018, dated 2022)", "key": {"BTK(wt) [1]": {"molecular_target": "T1, BTK(wt) (Homo sapiens (Human), UniProt Q06187)", "T1 sequence (Q06187 whole entry)": "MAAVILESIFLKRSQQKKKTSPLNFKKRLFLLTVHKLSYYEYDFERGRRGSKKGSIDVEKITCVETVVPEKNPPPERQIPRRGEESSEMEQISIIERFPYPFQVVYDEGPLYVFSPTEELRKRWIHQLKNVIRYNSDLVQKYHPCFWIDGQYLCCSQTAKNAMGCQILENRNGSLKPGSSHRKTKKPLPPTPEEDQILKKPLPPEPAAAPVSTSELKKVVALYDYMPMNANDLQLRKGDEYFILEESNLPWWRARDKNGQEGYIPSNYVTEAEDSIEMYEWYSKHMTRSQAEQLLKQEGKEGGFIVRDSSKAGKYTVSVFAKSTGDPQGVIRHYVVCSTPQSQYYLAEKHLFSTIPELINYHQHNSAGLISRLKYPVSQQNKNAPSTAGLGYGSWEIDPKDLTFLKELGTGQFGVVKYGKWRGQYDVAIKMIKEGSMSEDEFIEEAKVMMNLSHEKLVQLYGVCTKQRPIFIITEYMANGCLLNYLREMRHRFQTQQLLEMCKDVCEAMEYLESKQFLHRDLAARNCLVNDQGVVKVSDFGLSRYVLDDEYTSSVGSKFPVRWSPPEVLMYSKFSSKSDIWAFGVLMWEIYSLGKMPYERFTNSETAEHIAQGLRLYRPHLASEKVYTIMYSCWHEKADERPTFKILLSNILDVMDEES", "experiment": "pBTK inhibition in HEK293 cells transfected with BTK(wt) (ELISA)", "assay_type": "cell-based", "conditions": "2 h", "procedure": "(§1) For positive (high signal) controls, cells were treated with 0.5% DMSO alone. […] The absorbance was read at 450 nm. • Based on the absorbance readings of the positive and negative control values, the % inhibition value was calculated according to the following formula: (% INH=((positive control−sample)/(positive control−negative control))×100. • The Z′ value was calculated based on the following formula: 1−((3×standard deviation of positive+3×standard deviation of negative)/(mean positive−mean negative)). • The […] was plotted using GraphPad Prism. • IC50 values were determined after sigmoidal dose-response curve fitting."}, "BTK(wt) [2]": {"molecular_target": "T1, BTK(wt)", "experiment": "In vitro inhibitory activity against BTK(wt) enzyme (33P-ATP filter binding)", "assay_type": "biochemical", "conditions": "class symbols"}, "BTK(C481S) [3]": {"molecular_target": "T2, BTK(C481S) (Homo sapiens (Human), UniProt Q06187, C481S)", "T2 sequence (Q06187 whole entry C481S)": "as the sequence (Q06187 whole entry) above, with C481S counted along it", "experiment": "In vitro inhibitory activity against BTK(C481S) enzyme (33P-ATP filter binding)", "assay_type": "biochemical", "conditions": "class symbols; read-out: IC50 BTK(C48IS)"}, "BTK(C481S) [4]": {"molecular_target": "T2, BTK(C481S)", "experiment": "pBTK inhibition in HEK293 cells transfected with BTK(C481S) (ELISA)", "assay_type": "cell-based", "conditions": "2 h", "procedure": "as §1"}, "TMD-8 xenograft tumor": {"test_system": "TMD-8 xenograft tumor", "experiment": "TMD-8 xenograft tumor model", "assay_type": "in vivo", "conditions": "for TGI: bid", "procedure": "CB17/SCID female mice with serious immune deficiency were purchased from Beijing Vital River Laboratory Animal Technology Co., Ltd. and bred in SPF animal houses. Human TMD-8 cells (Shanghai Junrui-UFBN1682) were cultured in an RPMI 1640 culture medium containing 10% fetal bovine serum, 100 U/mL penicillin and 100 μg/mL streptomycin through monolayer culture in vitro in an incubator (37° C., 5% C02). Routine treatment was performed twice a week for passaging. At a cell saturation of 80%-90% and a required number, the cells were harvested and counted. 0.2 mL (1×10^7) of TMD-8 cells (together with matrigel at a volume ratio of 1:1) were subcutaneously inoculated into the right back of each mouse, and the tumor size could be measured about one week after inoculation. Tumor size was measured using a vernier caliper and tumor volume was calculated using the following formula: tumor volume=(length×width^2)/2."}, "[5]": {"experiment": "Pharmacokinetic study in male beagle dogs, intragastric", "assay_type": "in vivo", "conditions": "dog, 5 mg/kg", "procedure": "Three adult male beagle dogs were fasted overnight before test. The test drugs were each suspended in a solution of 0.5% methylcellulose (MC) and 0.1% SDS in deionized water (w/w/v), and the suspension, each at a concentration of 1 mg/mL, was administered intragastrically at 5 mL/kg. Blood was collected 15 min, 30 min, 1 h, 2 h, 4 h, 6 h, 8 h and 24 h after administration. Animals were lightly anesthetized with chloral hydrate, and approximately 0.5 mL of whole blood was collected from the forelimb vein using a glass blood collection tube and placed in a heparin anticoagulant tube. The sample was centrifuged at 4° C./4200 rpm for 5 min. All plasma samples were stored in a refrigerator at −80±15° C. prior to analysis. An LC-MS/MS (Waters I Class UPLC-Xevo TQD tandem mass spectrometry) assay for the compounds was established prior to sample analysis. The collected plasma was quantitatively analyzed, plasma concentration-time data of animals were analyzed using WinNonlin (professional edition, version 5.2) software, a non-compartmental model was used for concentration analysis, and the pharmacokinetic parameters of the test compounds were calculated."}}, "note": "Where “and” joins values, the source holds several entries; their conditions need not be identical. Equal values may be shown once. Read-outs that look alike come from different tables or passages of the source."}
{"smiles": "Nc1nccn2c(C34CCC(NC(=O)CN5CCOCC5)(CC3)C4)nc(-c3ccc(C(=O)Nc4cc(C(F)(F)F)ccn4)cc3)c12", "note": "[Compound A-10-10, 4-(8-amino-3-(4-(2-morpholinoacetamido)bicyclo[2.2.1]heptan-1-yl)imidazo[1,5-a]pyrazin-1-yl)-N-(4-(trifluoromethyl)pyridin-2-yl)benzamide]", "values": [{"measurement": "IC50", "setting": "BTK(wt) [1]", "value": 0.077, "unit": "µM"}, {"measurement": "IC50", "setting": "BTK(wt) [2]", "value": "0.001 to 0.01", "unit": "µM"}, {"measurement": "IC50", "setting": "BTK(C481S) [3]", "value": "≤ 0.0001", "unit": "µM"}, {"measurement": "IC50", "setting": "BTK(C481S) [4]", "value": "0.066 µM and 0.063 µM"}, {"measurement": "xenograft tumors disappeared (fraction)", "setting": "TMD-8 xenograft tumor; 50 mg/kg group, after 27 days of administration", "value": "5/8"}, {"measurement": "tolerance of tumor-bearing mice", "setting": "TMD-8 xenograft tumor; all dosages", "value": "good tolerance"}, {"measurement": "effect on body weight of tumor-bearing mice", "setting": "TMD-8 xenograft tumor; all treatment groups", "value": "no significant weight loss"}, {"measurement": "TGI", "setting": "TMD-8 xenograft tumor; intragastric 25 mg/kg", "value": 94, "unit": "%"}, {"measurement": "TGI", "setting": "TMD-8 xenograft tumor; intragastric 50 mg/kg", "value": 104, "unit": "%"}, {"measurement": "AUC0-INF", "setting": "[5]; p.o.", "value": 14867, "unit": "ng·h/mL"}, {"measurement": "Cmax", "setting": "[5]; p.o.", "value": 641, "unit": "ng/mL"}, {"measurement": "AUC(0-inf)", "setting": "[5]; male, beagle, plasma, po", "value": 14900, "unit": "ng·h/mL"}, {"measurement": "Tmax", "setting": "[5]; male, beagle, plasma, po", "value": 8, "unit": "h"}, {"measurement": "half-life", "setting": "[5]; male, beagle, plasma, po", "value": 14.2, "unit": "h"}, {"measurement": "Cmax", "setting": "[5]; male, beagle, plasma, po, p.o., read-out: Cmax", "value": 641, "unit": "ng/mL"}]}
